In patent US7390806B2, “Antibiotics containing borinic acid complexes and methods of use” (Anacor Pharmaceuticals, Inc., priority 2002, dated 2008):
≈ marks a conversion by molar mass, not a printed value.

Each compound was assayed on E. faecium CT-26 (assay: MIC determination, E. faecium CT-26). Settings: Table 1.
Format: cell-based, Enterococcus faecium

| SMILES | MIC E. faecium CT-26 [micrograms per ml] |
| --- | --- |
| Clc1cccc(B(Oc2cccc3cccnc23)c2cccs2)c1 [Compound 36, (3-Chlorophenyl)(2-thienyl)borinic acid 8-hydroxyquinoline ester] | 2 |
| Cc1ccnc2c(O)cccc12 [Compound 66] | 4 |
| Oc1ccc(F)c2cccnc12 [Compound 62] | 4 |
| Oc1cccc2cccnc12 [Compound 68, 8-hydroxyquinoline] | 4 |
| Oc1ccc(F)c2cccnc12 [Compound 64] | 8 |
| Oc1cccc2cccnc12 [Compound 37, 8-hydroxyquinoline] | 2 |
| N#Cc1ccc(OB(c2cccc(Cl)c2)c2cccc(Cl)c2)c2ncccc12 [Compound 19, Bis(3-Chlorophenyl)borinic acid 5-cyano-8-hydroxyquinoline ester] | 4 |
| Oc1c(Cl)cc(Cl)c2cccnc12 [Compound 23] | 16 |
| Oc1cccc2cccnc12 [Compound 80, 8-hydroxyquinoline] | 4 |
| Oc1cccc2cccnc12 [Compound 20, 8-hydroxyquinoline] | 4 |
| Oc1c(Cl)cc(Cl)c2cccnc12 [Compound 71] | 4 |
| Oc1cccc2cccnc12 [Compound 88, 8-hydroxyquinoline] | 2 |
| Oc1ccc(F)c2cccnc12 [Compound 58] | 4 |
| Oc1cccc2cccnc12 [Compound 28, 8-hydroxyquinoline] | 2 |
| Oc1cccc2cccnc12 [Compound 18, 8-hydroxyquinoline] | 4 |
| Oc1cccc2cccnc12 [Compound 100, 8-hydroxyquinoline] | 2 |
| Oc1ccc(F)c2cccnc12 [Compound 34] | 4 |
| Oc1cccc2cccnc12 [Compound 79, 8-hydroxyquinoline] | 4 |
| Oc1cccc2cccnc12 [Compound 98, 8-hydroxyquinoline] | 4 |
| Oc1cccc2cccnc12 [Compound 48, 8-hydroxyquinoline] | 2 |
| Oc1cccc2cccnc12 [Compound 96, 8-hydroxyquinoline] | 2 |

What follows are compounds tested on S. aureus ATCC 29213 (assay: MIC determination, S. aureus ATCC 29213). Settings: Table 1.
Format: cell-based, Staphylococcus aureus

| SMILES | MIC S. aureus ATCC 29213 [micrograms per ml] |
| --- | --- |
| Clc1cccc(B(Oc2cccc3cccnc23)c2cccs2)c1 [Compound 36, (3-Chlorophenyl)(2-thienyl)borinic acid 8-hydroxyquinoline ester] | 1 |
| Cc1ccnc2c(O)cccc12 [Compound 66] | 2 |
| Oc1ccc(F)c2cccnc12 [Compound 62] | 2 |
| Oc1cccc2cccnc12 [Compound 68, 8-hydroxyquinoline] | 2 |
| Oc1ccc(F)c2cccnc12 [Compound 64] | 2 |
| Oc1cccc2cccnc12 [Compound 37, 8-hydroxyquinoline] | 1 |
| N#Cc1ccc(OB(c2cccc(Cl)c2)c2cccc(Cl)c2)c2ncccc12 [Compound 19, Bis(3-Chlorophenyl)borinic acid 5-cyano-8-hydroxyquinoline ester] | 0.25 |
| Oc1c(Cl)cc(Cl)c2cccnc12 [Compound 23] | 0.5 |
| Oc1cccc2cccnc12 [Compound 80, 8-hydroxyquinoline] | 2 |
| Oc1cccc2cccnc12 [Compound 20, 8-hydroxyquinoline] | 0.25 |
| Oc1c(Cl)cc(Cl)c2cccnc12 [Compound 71] | 2 |
| Oc1cccc2cccnc12 [Compound 88, 8-hydroxyquinoline] | 2 |
| Oc1ccc(F)c2cccnc12 [Compound 58] | 2 |
| Oc1cccc2cccnc12 [Compound 28, 8-hydroxyquinoline] | 0.5 |
| Oc1cccc2cccnc12 [Compound 18, 8-hydroxyquinoline] | 0.25 |
| Oc1cccc2cccnc12 [Compound 100, 8-hydroxyquinoline] | 2 |
| Oc1ccc(F)c2cccnc12 [Compound 34] | 1 |
| Oc1cccc2cccnc12 [Compound 79, 8-hydroxyquinoline] | 2 |
| Oc1cccc2cccnc12 [Compound 98, 8-hydroxyquinoline] | 2 |
| Oc1cccc2cccnc12 [Compound 48, 8-hydroxyquinoline] | 1 |
| Oc1cccc2cccnc12 [Compound 96, 8-hydroxyquinoline] | 2 |

Each compound was assayed on E. faecalis ATCC 29212 (assay: MIC determination, E. faecalis ATCC 29212). Settings: Enterococcus faecalis, ATCC29212, Table 1; read-out: MIC E. faecalis ATCC 29212.
Format: cell-based, Enterococcus faecalis

| SMILES | MIC [µg/mL] |
| --- | --- |
| Oc1c(Cl)cc(Cl)c2cccnc12 [Compound 23] | 64 (≈ 299 µM) |

Same assay, conditions: Table 1

| SMILES | MIC E. faecalis ATCC 29212 [micrograms per ml] |
| --- | --- |
| Clc1cccc(B(Oc2cccc3cccnc23)c2cccs2)c1 [Compound 36, (3-Chlorophenyl)(2-thienyl)borinic acid 8-hydroxyquinoline ester] | 8 |
| Cc1ccnc2c(O)cccc12 [Compound 66] | 64 |
| Oc1ccc(F)c2cccnc12 [Compound 62] | 8 |
| Oc1cccc2cccnc12 [Compound 68, 8-hydroxyquinoline] | 32 |
| Oc1ccc(F)c2cccnc12 [Compound 64] | 8 |
| Oc1cccc2cccnc12 [Compound 37, 8-hydroxyquinoline] | 8 |
| N#Cc1ccc(OB(c2cccc(Cl)c2)c2cccc(Cl)c2)c2ncccc12 [Compound 19, Bis(3-Chlorophenyl)borinic acid 5-cyano-8-hydroxyquinoline ester] | 16 |
| Oc1cccc2cccnc12 [Compound 80, 8-hydroxyquinoline] | 4 |
| Oc1cccc2cccnc12 [Compound 20, 8-hydroxyquinoline] | 8 |
| Oc1c(Cl)cc(Cl)c2cccnc12 [Compound 71] | 64 |
| Oc1cccc2cccnc12 [Compound 88, 8-hydroxyquinoline] | 8 |
| Oc1ccc(F)c2cccnc12 [Compound 58] | 8 |
| Oc1cccc2cccnc12 [Compound 28, 8-hydroxyquinoline] | 4 |
| Oc1cccc2cccnc12 [Compound 18, 8-hydroxyquinoline] | 8 |
| Oc1cccc2cccnc12 [Compound 100, 8-hydroxyquinoline] | 4 |
| Oc1ccc(F)c2cccnc12 [Compound 34] | 8 |
| Oc1cccc2cccnc12 [Compound 79, 8-hydroxyquinoline] | 8 |
| Oc1cccc2cccnc12 [Compound 98, 8-hydroxyquinoline] | 8 |
| Oc1cccc2cccnc12 [Compound 48, 8-hydroxyquinoline] | 8 |
| Oc1cccc2cccnc12 [Compound 96, 8-hydroxyquinoline] | 8 |

What follows are compounds tested on S. epidermidis ATCC 12228 (assay: MIC determination, S. epidermidis ATCC 12228). Settings: Table 1.
Format: cell-based, Staphylococcus epidermidis

| SMILES | MIC S. epidermidis ATCC 12228 [micrograms per ml] |
| --- | --- |
| Clc1cccc(B(Oc2cccc3cccnc23)c2cccs2)c1 [Compound 36, (3-Chlorophenyl)(2-thienyl)borinic acid 8-hydroxyquinoline ester] | 1 |
| Cc1ccnc2c(O)cccc12 [Compound 66] | 1 |
| Oc1ccc(F)c2cccnc12 [Compound 62] | 2 |
| Oc1cccc2cccnc12 [Compound 68, 8-hydroxyquinoline] | 2 |
| Oc1ccc(F)c2cccnc12 [Compound 64] | 2 |
| Oc1cccc2cccnc12 [Compound 37, 8-hydroxyquinoline] | 1 |
| N#Cc1ccc(OB(c2cccc(Cl)c2)c2cccc(Cl)c2)c2ncccc12 [Compound 19, Bis(3-Chlorophenyl)borinic acid 5-cyano-8-hydroxyquinoline ester] | 2 |
| Oc1c(Cl)cc(Cl)c2cccnc12 [Compound 23] | 16 |
| Oc1cccc2cccnc12 [Compound 80, 8-hydroxyquinoline] | 1 |
| Oc1cccc2cccnc12 [Compound 20, 8-hydroxyquinoline] | 1 |
| Oc1c(Cl)cc(Cl)c2cccnc12 [Compound 71] | 2 |
| Oc1cccc2cccnc12 [Compound 88, 8-hydroxyquinoline] | 2 |
| Oc1ccc(F)c2cccnc12 [Compound 58] | 2 |
| Oc1cccc2cccnc12 [Compound 28, 8-hydroxyquinoline] | 1 |
| Oc1cccc2cccnc12 [Compound 18, 8-hydroxyquinoline] | 1 |
| Oc1cccc2cccnc12 [Compound 100, 8-hydroxyquinoline] | 1 |
| Oc1ccc(F)c2cccnc12 [Compound 34] | 2 |
| Oc1cccc2cccnc12 [Compound 79, 8-hydroxyquinoline] | 2 |
| Oc1cccc2cccnc12 [Compound 98, 8-hydroxyquinoline] | 1 |
| Oc1cccc2cccnc12 [Compound 48, 8-hydroxyquinoline] | 1 |
| Oc1cccc2cccnc12 [Compound 96, 8-hydroxyquinoline] | 1 |

The compounds below were run on M. catarrhalis ATCC 25238 (assay: MIC determination, M. catarrhalis ATCC 25238). Settings: Moraxella catarrhalis, ATCC25238, Table 1; read-out: MIC M. catarrhalis ATCC 25238.
Format: cell-based

| SMILES | MIC [µg/mL] |
| --- | --- |
| Oc1c(Cl)cc(Cl)c2cccnc12 [Compound 23] | 0.12 (≈ 0.561 µM) |

Same assay, conditions: Table 1

| SMILES | MIC M. catarrhalis ATCC 25238 [micrograms per ml] |
| --- | --- |
| Clc1cccc(B(Oc2cccc3cccnc23)c2cccs2)c1 [Compound 36, (3-Chlorophenyl)(2-thienyl)borinic acid 8-hydroxyquinoline ester] | 4 |
| Cc1ccnc2c(O)cccc12 [Compound 66] | 0.5 |
| Oc1ccc(F)c2cccnc12 [Compound 62] | 2 |
| Oc1cccc2cccnc12 [Compound 68, 8-hydroxyquinoline] | 0.12 |
| Oc1ccc(F)c2cccnc12 [Compound 64] | 1 |
| Oc1cccc2cccnc12 [Compound 37, 8-hydroxyquinoline] | 1 |
| N#Cc1ccc(OB(c2cccc(Cl)c2)c2cccc(Cl)c2)c2ncccc12 [Compound 19, Bis(3-Chlorophenyl)borinic acid 5-cyano-8-hydroxyquinoline ester] | 0.5 |
| Oc1cccc2cccnc12 [Compound 80, 8-hydroxyquinoline] | 2 |
| Oc1cccc2cccnc12 [Compound 20, 8-hydroxyquinoline] | 2 |
| Oc1c(Cl)cc(Cl)c2cccnc12 [Compound 71] | 0.12 |
| Oc1cccc2cccnc12 [Compound 88, 8-hydroxyquinoline] | 2 |
| Oc1ccc(F)c2cccnc12 [Compound 58] | 0.5 |
| Oc1cccc2cccnc12 [Compound 28, 8-hydroxyquinoline] | 1 |
| Oc1cccc2cccnc12 [Compound 18, 8-hydroxyquinoline] | 1 |
| Oc1cccc2cccnc12 [Compound 100, 8-hydroxyquinoline] | 1 |
| Oc1ccc(F)c2cccnc12 [Compound 34] | 1 |
| Oc1cccc2cccnc12 [Compound 79, 8-hydroxyquinoline] | 2 |
| Oc1cccc2cccnc12 [Compound 98, 8-hydroxyquinoline] | 1 |
| Oc1cccc2cccnc12 [Compound 48, 8-hydroxyquinoline] | 2 |
| Oc1cccc2cccnc12 [Compound 96, 8-hydroxyquinoline] | 1 |

These compounds were tested on S. pneumoniae ATCC 6301 (assay: MIC determination, S. pneumoniae ATCC 6301). Settings: Streptococcus pneumoniae, ATCC6301, Table 1; read-out: MIC S. pneumoniae ATCC 6301.
Format: cell-based, Streptococcus pneumoniae

| SMILES | MIC [µg/mL] |
| --- | --- |
| Oc1c(Cl)cc(Cl)c2cccnc12 [Compound 23] | 8 (≈ 37.4 µM) |

Same assay, conditions: Table 1

| SMILES | MIC S. pneumoniae ATCC 6301 [micrograms per ml] |
| --- | --- |
| Clc1cccc(B(Oc2cccc3cccnc23)c2cccs2)c1 [Compound 36, (3-Chlorophenyl)(2-thienyl)borinic acid 8-hydroxyquinoline ester] | 2 |
| Cc1ccnc2c(O)cccc12 [Compound 66] | 1 |
| Oc1ccc(F)c2cccnc12 [Compound 62] | 2 |
| Oc1cccc2cccnc12 [Compound 68, 8-hydroxyquinoline] | 16 |
| Oc1ccc(F)c2cccnc12 [Compound 64] | 4 |
| Oc1cccc2cccnc12 [Compound 37, 8-hydroxyquinoline] | 1 |
| N#Cc1ccc(OB(c2cccc(Cl)c2)c2cccc(Cl)c2)c2ncccc12 [Compound 19, Bis(3-Chlorophenyl)borinic acid 5-cyano-8-hydroxyquinoline ester] | 4 |
| Oc1cccc2cccnc12 [Compound 80, 8-hydroxyquinoline] | 2 |
| Oc1cccc2cccnc12 [Compound 20, 8-hydroxyquinoline] | 2 |
| Oc1c(Cl)cc(Cl)c2cccnc12 [Compound 71] | 8 |
| Oc1cccc2cccnc12 [Compound 88, 8-hydroxyquinoline] | 2 |
| Oc1ccc(F)c2cccnc12 [Compound 58] | 2 |
| Oc1cccc2cccnc12 [Compound 28, 8-hydroxyquinoline] | 2 |
| Oc1cccc2cccnc12 [Compound 18, 8-hydroxyquinoline] | 2 |
| Oc1cccc2cccnc12 [Compound 100, 8-hydroxyquinoline] | 2 |
| Oc1ccc(F)c2cccnc12 [Compound 34] | 2 |
| Oc1cccc2cccnc12 [Compound 79, 8-hydroxyquinoline] | 2 |
| Oc1cccc2cccnc12 [Compound 98, 8-hydroxyquinoline] | 1 |
| Oc1cccc2cccnc12 [Compound 48, 8-hydroxyquinoline] | 1 |
| Oc1cccc2cccnc12 [Compound 96, 8-hydroxyquinoline] | 2 |
